These results are taken from patent US8071535B2, “Guanidinium derivatives for improved cellular transport” (The Regents of the University of California, priority 2003, dated 2011).

For assay [1], the system named is 10T½ cells. The experiment in a line: Cellular uptake by FACS, 10T½ cells. Format: cell-based, mouse. The conditions noted are these: for Mean Fluorescence Intensities of Treated Cells According to FACS, 10T1/2: 0.5 μM of each compound for 1 hr, average intensity of 10,000 individual cells; for Cellular uptake (in words) / Cellular uptake / transport efficiency compared to poly-Arg peptide BODIPY-Cys(Arg)9 (5): FACS; for Cellular uptake (in words): slightly above the autofluorescence of the cell itself; for Cellular uptake / transport efficiency compared to poly-Arg peptide BODIPY-Cys(Arg)9 (5): in words; for Enhancement of cellular uptake upon guanidinylation: relative to autofluorescence, guanidinoglycoside-BODIPY vs aminoglycoside-BODIPY. How it is done: (§1) 10T½ cells, an adherent non-transformed mouse fibroblast cell line, were purchased from ATCC and used before their 20th passage. HeLa cells, a common human cancer cell line, were a gift from Dr. Susan S. Taylor. Both cell lines were cultured in Dulbecco's modified eagle medium containing 10% fetal bovine serum at 37° C. in an 8% CO2 environment. For each experiment, cells were seeded onto 4 cm tissue culture plates (Nunc) and allowed to grow overnight to […].
(§2) Compounds 1-5 identified in Table 1, below (0.5-1 μM), were added to each dish and incubated at 37° C./8% CO2 for 0.5-1 hr. Cells were then washed once in PBS, trypsinized with 500 μl ATV solution (Gibco) for 3 minutes, pelleted in a fixed angle centrifuge for 5 minutes at 5,000×G, then brought up in 1 mL PBS. Each sample was quickly (within 5 minutes) analyzed on a FACS VantageSE cell sorter (Becton-Dickinson) using the 488 nm argon/krypton laser line and a 530 nm band pass emission filter. 2,000-10,000 cells were counted per sample.
(§3) Examples of FACS histograms are presented in FIG. 3, which illustrates the fluorescence intensity versus cell count for 10,000 individual 10T½ cells following a 1 hour incubation with 0.5 μM of: (A) tobra-BODIPY (Red) and guanidine-tobra-BODIPY (White); (B) neo-BODIPY (Red) and guanidine-neo-BODIPY (White); (C) BODIPY-Cys(Arg)9 (Red), or guanidine-neo-BODIPY (White); and (D) uptake of BODIPY-Cys(Arg)9 inhibited by guanidine-neomycin B (6) at 0 μM (Red), 10 μM (Black), 200 μM (Green).
(§4) In a typical experiment, cell cultures were treated with 0.5-5 μM of each compound for 0.5-1 hr, washed twice with buffer, cleaved with trypsin, and quantified for fluorescence at 530 nm.
(In general: In flow cytometry, cells or beads pass a laser one at a time.)

The subject of assay [2] is 10T½ cells. The experiment in a line: Competition experiment: uptake of BODIPY-Cys(Arg)9 in presence of unlabeled guanidino-neomycin B (6), FACS. In kind it is cell-based, mouse. How it is done:
as §2, §3

Assay [3] has as its system HeLa cells. The experiment in a line: Cellular uptake by FACS, HeLa cells. The conditions noted are these: 1 μM of each compound for 0.5 hr; average intensity of 2,000 individual cells; about 10-fold higher instrumental gain than 10T1/2. Format: cell-based, human. How it is done:
as §1, §2, §4

Assay [4] deals with HeLa cells. The experiment in a line: Scanning confocal fluorescence microscopy, cellular localization. The conditions noted are these: confocal cross sections of living cells; 5 μM, 30 minute treatment. Format: cell-based, human. How it is done: The uptake of BODIPY-containing glycosides by two different eukaryotic cell lines was also studied using fluorescence microscopy.
as §4
(A) and (B) show cross-sectional images of two individual HeLa cells in solution following a 30 minute treatment with 5 μM of guanidine-neo-BODIPY and cleavage with trypsin.
Microscopy experiments have been conducted using both fluorescein-labeled and BODIPY-labeled guanidinoglycosides. The relative intensities of individual cells, following treatment with either fluorescent aminoglycosides or guanidinoglycosides are consistent with the trends from FACS experiments.

In assay [5] the test system is Rev-Response-Element (RRE). The conditions noted are these: in words; cited from earlier work.

Marks after values point to notes of the source that are not given here.

As to “BODIPY-Cys(Arg)9 hydrochloride (CRRRRRRRRR; N-acetyl, C-amide, BODIPY on Cys) [BODIPY-Cys (Arg)9 (5), poly-Arg transduction peptide ace-…-am labelled with BODIPY on Cys]”, the “Mean Fluorescence Intensities of Treated Cells According to FACS, 10T1/2” value (“Mean Fluorescence Intensities … 10T1/2” for short) in the assay on 10T½ cells [1] stood at 280. Besides, the “Mean Fluorescence Intensity, 10T1/2, in presence of 10 μM (6)” value in the assay on 10T½ cells [2] (0.5 μM (5) + 10 μM guanidino-neomycin B (6), 1 hr) is recorded as 110. Besides, in the assay on 10T½ cells [2] (0.5 μM (5) + 50 μM guanidino-neomycin B (6), 1 hr), the “Mean Fluorescence Intensity, 10T1/2, in presence of 50 μM (6)” value is reported as 90. Besides, in the assay on 10T½ cells [2] (0.5 μM (5) + 200 μM guanidino-neomycin B (6), 1 hr), the “Mean Fluorescence Intensity, 10T1/2, in presence of 200 μM (6)” value is 70. Besides, in the assay on HeLa cells [3], the “Mean Fluorescence Intensities of Treated Cells According to FACS, HeLa” value (“Mean Fluorescence Intensities … HeLa” for short) is listed as 2,000.
In the case of “neo-BODIPY hydrochloride [Neo-BODIPY (3)]”, in the assay on 10T½ cells [1], the “Mean Fluorescence Intensities … 10T1/2” value came out at 60 and the “Cellular uptake (in words)” value was “poor cellular uptakes”. Moreover, the “Mean Fluorescence Intensities … HeLa” value in the assay with HeLa cells [3] was ~1,400^(e).
As to “guanidino-Neo-BODIPY hydrochloride [Guanidino-Neo-BODIPY (4)]”, in the assay with 10T½ cells [1], the “Mean Fluorescence Intensities … 10T1/2” value turned out to be 430 and the “Cellular uptake / transport efficiency compared to poly-Arg peptide BODIPY-Cys(Arg)9 (5)” value is listed as “better cellular uptake”. For the same compound, the Cellular localization entry with HeLa cells [4] is on record as “two distinct types of cellular localization”. The “Mean Fluorescence Intensities … HeLa” value in the assay on HeLa cells [3] was 7,900.
For the compound “guainidino-tobra-BODIPY hydrochloride [Guanidino-Tobra-BODIPY (2)]”, in the assay with 10T½ cells [1], the “Mean Fluorescence Intensities … 10T1/2” value amounted to 240 and the “Cellular uptake / transport efficiency compared to poly-Arg peptide BODIPY-Cys(Arg)9 (5)” value is “approximately the same transport efficiency”. Further, in the assay with HeLa cells [3], the “Mean Fluorescence Intensities … HeLa” value is given as 2,100.
With `NC(N)=NC[C@@H]1O[C@H](O[C@H]2[C@@H](O)[C@H](O[C@@H]3[C@H](O)[C@@H](N=C(N)N)C[C@@H](N=C(N)N)[C@H]3O[C@H]3O[C@H](CN=C(N)N)[C@@H](O)[C@H](O)[C@H]3N=C(N)N)O[C@@H]2CO)[C@H](N=C(N)N)[C@@H](O)[C@@H]1O` [guanidine-neomycin B (6, guanidino-neomycin B], the “Inhibition of the transport of BODIPY-Cys(Arg)9 into cells” value in the assay on 10T½ cells [2] (FACS, unlabeled competitor 10-200 μM, in words) is given as “effectively inhibits”. The “Affinity to the RRE” value in assay [5] is reported as “substantial affinity”.
In the case of `NC[C@H]1O[C@H](O[C@H]2[C@H](O)[C@@H](O[C@H]3O[C@H](CO)[C@@H](O)[C@H](N)[C@H]3O)[C@H](N)C[C@@H]2N)[C@H](N)C[C@@H]1O` [tobramycin, reference compound], in the assay on 10T½ cells [1], the “Enhancement of cellular uptake upon guanidinylation” value is on record as “approximately 10 fold”.
Consider “tobra-BODIPY hydrochloride [Tobra-BODIPY (1)]”, for which, in the assay on 10T½ cells [1], the “Mean Fluorescence Intensities … 10T1/2” value stood at 60 and the “Cellular uptake (in words)” value is given as “poor cellular uptakes”. In addition, the “Mean Fluorescence Intensities … HeLa” value in the assay with HeLa cells [3] is given as 1,000.
In the case of guanidino-tobramycin, in assay [5], the “Affinity to the RRE” value was “substantial affinity”.
With `NC[C@@H]1O[C@H](O[C@H]2[C@@H](O)[C@H](O[C@@H]3[C@@H](O)[C@H](N)C[C@H](N)[C@H]3O[C@H]3O[C@H](CN)[C@@H](O)[C@H](O)[C@H]3N)O[C@@H]2CO)[C@H](N)[C@@H](O)[C@@H]1O` [neomycin B, reference compound], the “Enhancement of cellular uptake upon guanidinylation” value in the assay with 10T½ cells [1] was “approximately 20 fold”.
